Data: the Kinase Knowledgebase extract (Sharma et al. 2016)
Values joined by “and” are separate entries in the source; they are usually repeats but may differ in a detail not shown here. Equal values may be shown once.

Experiments:
PIK3CD (Human) [1] = molecular target: PIK3CD (Human) (UniProt O00329); test: Assessment of PIK3CD Kinase Activity
CDK2 (human) [2] = molecular target: CDK2 (human) (UniProt P24941); test: Cell-Based Assay
MAPK14 = MAPK14 (UniProt Q16539); test: p38 Inhibition; conditions: for inhibition: concentration not given here
MAPK14, sequence (Q16539 whole entry, looked up): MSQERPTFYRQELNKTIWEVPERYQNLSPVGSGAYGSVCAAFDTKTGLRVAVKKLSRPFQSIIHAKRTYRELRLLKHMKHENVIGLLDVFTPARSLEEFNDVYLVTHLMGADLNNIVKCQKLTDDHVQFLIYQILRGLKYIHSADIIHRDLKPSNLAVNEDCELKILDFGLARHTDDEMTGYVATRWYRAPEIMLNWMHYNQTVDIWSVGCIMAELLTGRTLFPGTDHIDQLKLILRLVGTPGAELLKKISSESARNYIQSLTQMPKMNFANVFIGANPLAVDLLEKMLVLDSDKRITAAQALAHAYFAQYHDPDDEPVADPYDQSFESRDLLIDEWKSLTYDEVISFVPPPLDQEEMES

[3] = molecular target: PIK3CB;PIK3CG;PIK3CD;PIK3CA (human) (UniProt P48736); test: Inhibition of PIK3 Kinase Activity
PIK3CG (human) [4] = molecular target: PIK3CG (human) (UniProt P48736); test: Assessment of PIK3CG Kinase Activity
PIK3CG (human), sequence (P48736 whole entry, looked up): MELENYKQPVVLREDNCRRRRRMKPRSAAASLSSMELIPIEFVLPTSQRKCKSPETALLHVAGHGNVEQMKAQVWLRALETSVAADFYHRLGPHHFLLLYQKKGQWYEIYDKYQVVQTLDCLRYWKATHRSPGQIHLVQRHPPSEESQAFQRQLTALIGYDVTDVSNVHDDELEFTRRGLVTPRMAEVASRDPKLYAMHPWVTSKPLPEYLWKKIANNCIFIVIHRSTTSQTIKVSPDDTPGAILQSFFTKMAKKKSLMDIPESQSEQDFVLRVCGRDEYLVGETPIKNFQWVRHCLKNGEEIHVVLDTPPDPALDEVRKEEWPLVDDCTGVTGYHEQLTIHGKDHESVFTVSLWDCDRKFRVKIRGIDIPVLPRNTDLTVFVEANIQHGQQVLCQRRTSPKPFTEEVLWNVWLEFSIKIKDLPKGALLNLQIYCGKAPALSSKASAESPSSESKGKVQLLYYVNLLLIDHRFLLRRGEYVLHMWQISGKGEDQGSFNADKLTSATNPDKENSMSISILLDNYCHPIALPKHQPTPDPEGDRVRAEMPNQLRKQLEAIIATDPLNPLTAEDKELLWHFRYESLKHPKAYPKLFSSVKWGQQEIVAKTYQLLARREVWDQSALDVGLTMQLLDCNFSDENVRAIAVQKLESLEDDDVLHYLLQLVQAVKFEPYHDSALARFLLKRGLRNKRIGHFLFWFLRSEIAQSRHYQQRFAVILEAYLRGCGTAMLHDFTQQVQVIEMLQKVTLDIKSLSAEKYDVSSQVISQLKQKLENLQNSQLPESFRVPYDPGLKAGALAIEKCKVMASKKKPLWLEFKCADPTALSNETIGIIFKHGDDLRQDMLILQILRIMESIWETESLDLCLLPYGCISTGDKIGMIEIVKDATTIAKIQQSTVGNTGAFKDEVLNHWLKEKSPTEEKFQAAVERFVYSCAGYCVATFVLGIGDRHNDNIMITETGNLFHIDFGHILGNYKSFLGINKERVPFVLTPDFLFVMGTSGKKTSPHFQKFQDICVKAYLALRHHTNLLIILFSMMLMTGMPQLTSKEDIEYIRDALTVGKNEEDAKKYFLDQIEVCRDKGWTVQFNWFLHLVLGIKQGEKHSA

ROCK2 (human) = ROCK2 (human) (UniProt O75116); test: Enzyme Assay; conditions: for activity: concentration not given here
ROCK2 (human), sequence (O75116 whole entry, looked up): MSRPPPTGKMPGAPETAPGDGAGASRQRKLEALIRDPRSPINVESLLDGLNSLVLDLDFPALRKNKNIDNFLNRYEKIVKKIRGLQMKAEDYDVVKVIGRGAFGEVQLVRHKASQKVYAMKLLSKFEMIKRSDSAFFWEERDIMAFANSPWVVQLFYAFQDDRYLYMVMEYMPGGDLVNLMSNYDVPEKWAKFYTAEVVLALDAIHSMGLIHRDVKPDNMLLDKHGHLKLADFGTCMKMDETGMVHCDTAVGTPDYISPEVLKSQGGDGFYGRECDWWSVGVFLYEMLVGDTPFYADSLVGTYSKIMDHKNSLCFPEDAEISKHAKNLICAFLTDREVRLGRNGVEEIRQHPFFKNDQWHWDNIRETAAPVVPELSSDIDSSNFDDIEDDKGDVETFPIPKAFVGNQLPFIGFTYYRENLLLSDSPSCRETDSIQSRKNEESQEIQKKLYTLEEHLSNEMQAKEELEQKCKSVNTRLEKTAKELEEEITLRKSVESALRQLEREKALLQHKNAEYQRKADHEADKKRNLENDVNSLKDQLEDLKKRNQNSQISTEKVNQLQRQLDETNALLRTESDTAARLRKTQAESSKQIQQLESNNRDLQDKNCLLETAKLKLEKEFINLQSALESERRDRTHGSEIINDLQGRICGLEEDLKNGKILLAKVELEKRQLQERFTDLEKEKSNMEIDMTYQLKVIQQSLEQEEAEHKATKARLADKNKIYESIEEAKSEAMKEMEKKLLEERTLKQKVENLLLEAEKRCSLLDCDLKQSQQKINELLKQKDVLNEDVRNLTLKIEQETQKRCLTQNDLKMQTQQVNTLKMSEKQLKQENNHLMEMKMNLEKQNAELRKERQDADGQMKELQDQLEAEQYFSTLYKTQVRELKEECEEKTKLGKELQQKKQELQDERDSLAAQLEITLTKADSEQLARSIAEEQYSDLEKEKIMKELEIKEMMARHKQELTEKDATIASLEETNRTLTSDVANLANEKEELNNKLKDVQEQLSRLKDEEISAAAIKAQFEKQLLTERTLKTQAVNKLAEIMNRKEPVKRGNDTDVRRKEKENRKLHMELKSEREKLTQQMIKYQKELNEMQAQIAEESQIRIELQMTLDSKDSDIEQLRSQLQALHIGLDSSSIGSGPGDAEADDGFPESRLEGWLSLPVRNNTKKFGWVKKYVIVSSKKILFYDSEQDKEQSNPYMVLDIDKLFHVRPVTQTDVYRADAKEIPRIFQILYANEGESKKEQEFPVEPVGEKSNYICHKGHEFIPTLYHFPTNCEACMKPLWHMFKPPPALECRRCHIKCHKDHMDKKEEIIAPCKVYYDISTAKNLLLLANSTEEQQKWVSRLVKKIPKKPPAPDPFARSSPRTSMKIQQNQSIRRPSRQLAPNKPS

PIK3CA (human) [5] = molecular target: PIK3CA (human) (UniProt P42336); test: Assessment of PIK3CA Kinase Activity
PIK3CA (human), sequence (P42336 whole entry, looked up): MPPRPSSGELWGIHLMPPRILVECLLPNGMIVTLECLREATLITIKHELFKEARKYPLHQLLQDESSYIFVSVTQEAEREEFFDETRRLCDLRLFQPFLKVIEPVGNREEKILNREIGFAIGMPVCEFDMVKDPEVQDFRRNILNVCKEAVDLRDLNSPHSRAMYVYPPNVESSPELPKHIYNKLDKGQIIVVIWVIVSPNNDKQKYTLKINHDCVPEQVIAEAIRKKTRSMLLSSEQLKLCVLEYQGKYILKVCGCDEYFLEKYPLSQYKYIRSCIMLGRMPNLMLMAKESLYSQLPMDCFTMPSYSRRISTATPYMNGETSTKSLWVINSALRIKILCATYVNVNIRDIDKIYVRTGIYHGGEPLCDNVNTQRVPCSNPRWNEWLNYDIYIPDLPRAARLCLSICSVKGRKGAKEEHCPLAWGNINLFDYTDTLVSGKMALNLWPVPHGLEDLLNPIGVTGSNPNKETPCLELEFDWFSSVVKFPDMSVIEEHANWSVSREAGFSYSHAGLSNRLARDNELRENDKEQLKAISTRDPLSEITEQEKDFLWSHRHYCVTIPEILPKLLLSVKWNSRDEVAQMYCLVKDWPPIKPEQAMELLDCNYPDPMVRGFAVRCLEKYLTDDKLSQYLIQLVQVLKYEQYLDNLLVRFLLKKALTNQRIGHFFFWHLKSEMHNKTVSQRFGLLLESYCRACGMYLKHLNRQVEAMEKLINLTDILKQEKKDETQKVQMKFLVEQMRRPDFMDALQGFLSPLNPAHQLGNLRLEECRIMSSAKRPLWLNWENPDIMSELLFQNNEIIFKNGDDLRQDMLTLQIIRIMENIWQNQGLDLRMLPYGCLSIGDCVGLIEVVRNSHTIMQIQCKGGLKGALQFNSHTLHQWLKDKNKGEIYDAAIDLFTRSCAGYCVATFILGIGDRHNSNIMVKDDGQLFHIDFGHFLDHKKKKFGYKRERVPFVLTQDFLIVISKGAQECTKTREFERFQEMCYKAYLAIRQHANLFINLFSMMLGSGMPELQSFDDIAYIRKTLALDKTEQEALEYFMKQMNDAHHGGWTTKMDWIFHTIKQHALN

CDK2 (human) [6] = molecular target: CDK2 (human) (UniProt P24941); test: Enzyme Assay
MAPK14 (human) = MAPK14 (human) (UniProt Q16539); test: Enzyme Assay; conditions: concentration not given here
MAPK14 (human), sequence (Q16539 whole entry, looked up): as the sequence (Q16539 whole entry, looked up) above

PIK3CD (Human) [7] = molecular target: PIK3CD (Human) (UniProt O00329); test: Inhibition of PIK3CD Kinase Activity
PIK3CD (Human) [8] = molecular target: PIK3CD (Human) (UniProt O00329); test: Enzyme Assay
PIK3CA (human) [9] = molecular target: PIK3CA (human) (UniProt P42336); test: Enzyme Assay
PIK3CG (human) [10] = molecular target: PIK3CG (human) (UniProt P48736); test: Enzyme Assay

PIK3CD (Human), sequence (O00329 whole entry, looked up): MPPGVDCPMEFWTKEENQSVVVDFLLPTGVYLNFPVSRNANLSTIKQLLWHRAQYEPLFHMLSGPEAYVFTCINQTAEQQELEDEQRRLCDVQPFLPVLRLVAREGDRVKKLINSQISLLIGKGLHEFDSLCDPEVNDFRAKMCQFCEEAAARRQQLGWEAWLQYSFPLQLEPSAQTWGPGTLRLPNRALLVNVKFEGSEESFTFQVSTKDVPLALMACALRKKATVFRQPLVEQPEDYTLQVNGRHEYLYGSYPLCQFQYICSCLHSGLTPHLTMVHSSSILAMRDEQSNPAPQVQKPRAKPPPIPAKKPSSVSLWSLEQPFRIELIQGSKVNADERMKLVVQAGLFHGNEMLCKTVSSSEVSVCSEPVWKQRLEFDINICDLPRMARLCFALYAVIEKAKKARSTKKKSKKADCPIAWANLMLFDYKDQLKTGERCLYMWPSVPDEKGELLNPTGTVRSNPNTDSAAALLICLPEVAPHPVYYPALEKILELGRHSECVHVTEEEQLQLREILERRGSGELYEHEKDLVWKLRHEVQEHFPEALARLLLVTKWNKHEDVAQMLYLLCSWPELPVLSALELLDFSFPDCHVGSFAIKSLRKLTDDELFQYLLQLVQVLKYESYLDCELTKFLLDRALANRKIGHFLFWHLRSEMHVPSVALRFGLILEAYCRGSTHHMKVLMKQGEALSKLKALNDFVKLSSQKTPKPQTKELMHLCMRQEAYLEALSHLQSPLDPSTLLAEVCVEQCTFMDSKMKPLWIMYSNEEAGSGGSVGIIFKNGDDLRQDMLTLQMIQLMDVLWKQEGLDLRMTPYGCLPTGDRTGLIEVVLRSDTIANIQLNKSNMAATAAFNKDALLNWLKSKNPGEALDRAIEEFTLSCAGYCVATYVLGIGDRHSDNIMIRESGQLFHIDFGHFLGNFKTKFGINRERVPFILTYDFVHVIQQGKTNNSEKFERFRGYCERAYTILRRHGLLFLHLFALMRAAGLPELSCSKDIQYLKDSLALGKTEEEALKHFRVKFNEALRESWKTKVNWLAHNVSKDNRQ

Q: For `C[C@H](Nc1ncnc(N)c1C(N)=O)c1nc2ccc(F)cc2c(C(=O)O)c1-c1ccccc1`, which Ki (PIK3CD (Human) [1]) is on record?
A: 7.16 nM

Q: For `COc1cccc(CC(=O)Nc2cc(C3CC3)[nH]n2)c1`, which IC50 (CDK2 (human) [2]; a2780) is on record?
A: > 20000 nM

Q: Which inhibition (MAPK14) does the source give for `Cc1[nH]c(=O)c2c(ccc3nc(Nc4c(Cl)cccc4Cl)[nH]c32)c1C` here?
A: 0%

Q: `O=C(C1CNCCO1)N1CCN(c2cc(N3CCOCC3)nc(-c3cccc(CO)c3)n2)CC1` (stereo not drawn) was tested. Which IC50 [3] did it give?
A: 1000 nM

Q: Which IC50 (PIK3CD (Human) [1]) does the source give for `Cc1ncc2c(Cl)cc(C(C)Nc3ncnc4[nH]cnc34)c(-c3cccc(F)c3)n12` (stereo not drawn) here?
A: ≤ 50 nM

Q: How did the IC50 (PIK3CG (human) [4]) turn out when `CC(=O)Nc1nc2ccc(-c3cccc(-c4nc(C)no4)c3)cn2n1` was run?
A: > 20000 nM

Q: What about the IC50 (PIK3CD (Human) [1]) of the same molecule?
A: > 100000 nM

Q: How did the IC50 (MAPK14) turn out when `O=C(CCCNc1ncc(C(F)(F)F)cc1Cl)NNS(=O)(=O)c1ccc(CNC(=O)c2cccc([N+](=O)[O-])c2)s1` was run?
A: > 30000 nM

Q: For `COc1cc(C(=O)NCc2cccc(Cl)c2)ccc1-c1cn[nH]c1`, which IC50 (ROCK2 (human)) is on record?
A: 49.7 nM

Q: `Oc1cncc(-c2nc(C3=CCOCC3)c3ncn(C4CCN(Cc5cncc(Br)c5)CC4)c3n2)c1` was tested. Which IC50 (PIK3CA (human) [5]) did it give?
A: 1340 nM

Q: What about the IC50 (PIK3CG (human) [4]) of the same molecule?
A: 6740 nM

Q: How did the IC50 (CDK2 (human) [6]) turn out when `O=C1NCCc2c1[nH]c1ccc(Br)cc21` was run?
A: 2000 nM

Q: What about the IC50 (CDK2 (human) [2]; hela) of the same molecule?
A: 3000 nM

Q: `Cc1cc(-c2c(-c3ccc(F)cc3)ncn2CCCN2CCOCC2)nc(N)n1` was tested. Which IC50 (MAPK14) did it give?
A: > 17000 nM

Q: With `CN[C@@H]1C[C@H]2O[C@@](C)([C@@H]1OC)n1c3ccccc3c3c4c(c5c6ccccc6n2c5c31)C(=O)N[C@@H]4O` as the molecule, how does the activity (MAPK14 (human)) read?
A: 92%

Q: What about the activity (ROCK2 (human)) of the same molecule?
A: 22%

Q: `O=C1NC(=O)/C(=C/c2ccc3cc(F)oc3c2)S1` was tested. Which IC50 (PIK3CD (Human) [7]) did it give?
A: 20000 nM

Q: What does the source list for `O=c1cc(N2CCOCC2)oc2c(-c3ccccc3)cccc12`?
A: IC50 (PIK3CD (Human) [8]): 268 nM; IC50 (PIK3CD (Human) [7]): 1020 nM

Q: With `O=C1NC(=O)/C(=C/c2ccc3c(c2)NCCO3)S1` as the molecule, how does the IC50 (PIK3CD (Human) [7]) read?
A: 20000 nM

Q: What does the source list for `O=C(Nc1cccc(CO)c1)Nc1cccc(-c2nc(N3CCOCC3)c3ncccc3n2)c1`?
A: IC50 (PIK3CA (human) [9]): 5800 nM; IC50 (PIK3CD (Human) [8]): 836 nM; IC50 (PIK3CG (human) [10]): 22000 nM

Q: How did the activity (ROCK2 (human)) turn out when `O=S(=O)(NCCNC/C=C/c1ccc(Br)cc1)c1cccc2cnccc12` was run?
A: 0%

Q: Which IC50 (PIK3CD (Human) [7]) does the source give for `Cc1ccccc1-c1nc2c(C)cccc2cc1COc1ncnc2[nH]cnc12` here?
A: 27 nM

Q: With `O=c1n(Cc2ccccc2)c2nc(-c3cccc(O)c3)nc(C3=CCOCC3)c2n1Cc1ccccc1` as the molecule, how does the IC50 (PIK3CA (human) [5]) read?
A: 2420 nM

Q: And the IC50 (PIK3CG (human) [4])?
A: 1610 nM

Q: For `COc1ncc(-c2ccc3nccc(-c4ccnnc4)c3c2)cc1NS(=O)(=O)c1ccc(F)cc1F`, which Ki (PIK3CG (human) [10]) is on record?
A: 0.06 nM

Q: With `Cc1c(N2CCN(C(=O)N(C)C)CC2)nc2cc(F)cc(F)c2c1Nc1cncc(N2CCOCC2)c1C(=O)N(C)C` as the molecule, how does the Ki (PIK3CD (Human) [1]) read?
A: 81.6 nM

Q: With `C[C@H](Nc1ncnc2[nH]cnc12)c1cc2cccc(Cl)c2nc1-c1cc(F)ccc1Cl` as the molecule, how does the IC50 (PIK3CD (Human) [7]) read?
A: 8 nM

Q: Which results are given for `O=C(Nc1ccc(-c2nc(N3CCOCC3)nc(N3CCOCC3)n2)cc1)Nc1cccs1`?
A: IC50 (PIK3CA (human) [5]): 2 nM; IC50 (PIK3CG (human) [4]): 23 nM

Q: How did the IC50 [3] turn out when `Cn1ccnc1C(=O)N1CCN(c2cc(N3CCOCC3)nc(-c3cccc(CO)c3)n2)CC1` was run?
A: 500 nM

Q: Which IC50 (CDK2 (human) [2]; rko) does the source give for `NCCSc1cc(-c2ccc[nH]2)c2c3c(ccc(F)c13)NC2=O` here?
A: 100 nM

Q: For `COc1cccc([C@@H](C)NC(=O)c2cc3ccc(-c4cn[nH]c4)cc3[nH]2)c1`, which IC50 (ROCK2 (human)) is on record?
A: 1 nM

Q: For `COCCC(=O)c1ccc(C(=O)Nc2cccc(CN3CCC(Nc4cccc5cnccc45)CC3)c2)cc1`, which IC50 (ROCK2 (human)) is on record?
A: < 100 nM

Q: How did the inhibition (MAPK14) turn out when `O=c1c(-c2ccc(F)cc2)c(-c2ccncc2)[nH]n1-c1ccc(Cl)cc1` was run?
A: 43%

Q: How did the Ki (PIK3CD (Human) [1]) turn out when `CC(Nc1ncnc(N)c1C#N)c1nc2ccc(F)cc2c([S+]([O-])CCO)c1-c1ccccc1` (stereo not drawn) was run?
A: 1.8 nM and 2.48 nM

Q: How did the Ki (ROCK2 (human)) turn out when `Oc1ccc(-c2nc(-c3ccc(F)cc3)c(-c3ccncc3)[nH]2)cc1` was run?
A: 3980 nM

Q: `CN1CCC(c2ccccc2CC(C)(C)Nc2nc(N3CCOCC3)nc(-n3c(C(F)F)nc4ccccc43)n2)C1` (stereo not drawn) was tested. Which IC50 (PIK3CD (Human) [7]) did it give?
A: < 100 nM

Q: `Cc1cc(-c2c(-c3ccc(F)cc3)ncn2CCCN2CCOCC2)cc(C)n1` was tested. Which IC50 (MAPK14) did it give?
A: > 17000 nM

Q: `C[C@H](Nc1ncnc(N)c1C#N)c1nc2ccc(F)cc2c(C(=O)O)c1-c1ccccc1` was tested. Which Ki (PIK3CD (Human) [1]) did it give?
A: 74.2 nM

Q: `COc1cc(C(=O)NCc2ccc(Cl)cc2)ccc1-c1cn[nH]c1` was tested. Which IC50 (ROCK2 (human)) did it give?
A: 4.93 nM

Q: For `O=C(CNS(=O)(=O)c1ccc(CNC(=O)c2ccc(Cl)cc2)s1)Nc1cccc(S(=O)(=O)C(F)(F)F)c1`, which IC50 (MAPK14) is on record?
A: > 30000 nM

Q: For `CC(C)C(=O)N1CC=C(c2cc(N3CCOCC3)nc(-c3cccc(CO)c3)n2)CC1`, which IC50 [3] is on record?
A: 1000 nM

Q: With `Fc1ccc(Cl)c(-c2nc3c(Cl)cccc3cc2CNc2ncnc3[nH]cnc23)c1` as the molecule, how does the IC50 (PIK3CD (Human) [7]) read?
A: 71 nM

Q: For `O=C(NCc1ccncc1)C1CCN(c2cc(N3CCOCC3)nc(-c3cccc(CO)c3)n2)CC1`, which IC50 [3] is on record?
A: 1000 nM

Q: Which results are given for `CO[C@H]1C[C@@H]2CC[C@@H](C)[C@@](O)(O2)C(=O)C(=O)N2CCCC[C@H]2C(=O)O[C@H]([C@H](C)C[C@@H]2CC[C@@H](O)[C@H](OC)C2)CC(=O)[C@H](C)C=C(C)[C@@H](O)[C@@H](OC)C(=O)[C@H](C)C[C@H](C)C=CC=CC=C1C`?
A: activity (MAPK14 (human)): 93%; activity (ROCK2 (human)): 106%

Q: Which IC50 [3] does the source give for `O=C(C1COCCN1)N1CC=C(c2cc(N3CCOCC3)nc(-c3cccc(CO)c3)n2)CC1` (stereo not drawn) here?
A: 1000 nM

Q: For `COc1cccc(CN(C)C(=O)Nc2ccc(-c3cn[nH]c3)cc2OCCN2CCCC2)c1`, which IC50 (ROCK2 (human)) is on record?
A: < 1 nM

Q: For `O=C(CCc1cccnc1)N1CCN(c2cc(N3CCOCC3)nc(-c3cccc(CO)c3)n2)CC1`, which IC50 [3] is on record?
A: 500 nM

Q: How did the Ki (PIK3CD (Human) [1]) turn out when `CC(Nc1ncnc(N)c1C#N)c1nc2ccc(F)cc2c(C(=O)N(C)C)c1-c1ccccn1` (stereo not drawn) was run?
A: 7.77 nM
